Measurements from patent US20220265834A1, “BCL-2 PROTEIN INHIBITORS” (Recurium IP Holdings, LLC, priority 2019, published 2022).

Legend:
Format in all cases: cell-based
MOLT-4 cells = experiment: MOLT-4 Cell Proliferation Assay (CellTiter-Glo Luminescent Cell Viability Assay); details: Homo sapiens, 72 h incubation, read-out: MOLT-4 (nM) CTG IC50
Method: Cell proliferation was measured using the CellTiter-Glo® Luminescent Cell Viability Assay. The assay involved the addition of a single reagent (CellTiter-Glo® Reagent) directly to cells cultured in serum-supplemented medium. MOLT-4 cells (ATCC, CRL-1582) were cultured according to ATCC recommendations and were seeded at 50,000 cells per well.
Each compound evaluated was prepared as a DMSO stock solution (10 mM). Compounds were tested in duplicate on each plate, with a 10-point serial dilution curve (1:3 dilution). The highest compound concentration was 10 μM (final), with a 0.1% final DMSO concentration. Plates were then incubated at 37° C., 5% CO2 for 72 h, cell plates were equilibrated at rt for approximately 30 mins. An equi-volume amount of CellTiter-Glo® Reagent (100 μL) was added to each well. Plates were mixed for 2 mins on an orbital shaker to induce cell lysis and then incubated at rt for 10 mins to stabilize the luminescent signal. Luminescence was recorded using a Envision plate reader according to CellTiter-Glo protocol. IC50 of each compound was calculated using GraphPad Prism by nonlinear regression analysis.

Bcl-xL [1] = target: T1, Bcl-xL (Homo sapiens, UniProt Q07817); experiment: Protein degradation assay in MOLT-4 cells (Western blot); parameters: host or cells: MOLT-4; details: 100 nM compound, 16 hours, FIGS. 4 and 5
T1 sequence (Q07817 whole entry): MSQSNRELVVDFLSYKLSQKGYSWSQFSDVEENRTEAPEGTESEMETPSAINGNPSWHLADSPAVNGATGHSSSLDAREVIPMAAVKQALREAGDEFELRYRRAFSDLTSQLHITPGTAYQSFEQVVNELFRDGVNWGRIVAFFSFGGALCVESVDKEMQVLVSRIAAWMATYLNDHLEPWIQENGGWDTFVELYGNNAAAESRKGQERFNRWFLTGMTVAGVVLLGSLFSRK
Method: (§1) MOLT-4 (ATCC, CRL-1582) (FIGS. 4, 5) were incubated with vehicle or 100 nM concentrations of the indicated compounds for 16 hours. MOLM-13 (DSMZ, ACC554) (FIG. 6,7) cells were incubated with vehicle or increasing concentrations of the indicated compound for 24 hours. For proteasome inhibition, MOLM-13 cells were pretreated with 1 μM of MG132 for 1 hour before the addition of 1 μM of the indicated compounds. After treatment, the cells were harvested in RIPA lysis buffer supplemented with 1% Phosphatase Inhibitor and Protease Inhibitor Cocktail. An equal amount of protein (10 μg/lane) from each cell extract was resolved on a 4-12% Bis-Tris gel. Proteins were transferred using iBlot 2 Transfer Stacks. The membranes were blocked with 5% nonfat milk in TBS-T buffer (50 mM Tris-HCL, pH 7.6; 150 mM NaCl; and 0.05% Tween) and probed with primary antibodies (1:1000 dilution) overnight at 4° C. After three washes with TBS-T (10 min/wash), the membranes were incubated with an appropriate peroxidase-conjugated secondary antibody (Cell Signaling Technology, USA) for 1 hour at rt. After three washes with TBS-T, the proteins of interest were detected with ECL Western Blotting Detection Reagents and captured with an Azure imaging system. The band intensities were determined using ImageJ software and normalized to loading control β-actin or GAPDH. The primary antibodies Bcl-xL (#2762), Bcl-2 (#2872s), Mcl-1 (#5453s) and β-actin (13E5, #4970), and GAPDH (#5174) were purchased from Cell Signaling Technology.

Bcl-xL [2] = target: T1, Bcl-xL; experiment: Protein degradation assay in MOLM-13 cells (Western blot); details: for Bcl-xL degradation in MOLM-13 cells: increasing concentrations, 24 hours, FIG. 6; for Bcl-xL degradation with proteasome inhibitor MG132 in MOLM-13 cells: pretreated with 1 μM MG132 for 1 hour, then 1 μM compound, FIG. 7
Method: as §1

Row | SMILES | IC50 (MOLT-4 cells) [nM] | Bcl-xL degradation in MOLT-4 cells (Bcl-xL [1]) | Bcl-xL degradation in MOLM-13 cells (Bcl-xL [2]) | Bcl-xL degradation with proteasome inhibitor MG132 in MOLM-13 cells (Bcl-xL [2])
1 | CC1(C)CCC(c2ccc(Cl)cc2)=C(CN2CCN(c3ccc(C(=O)NS(=O)(=O)c4ccc(N[C@H](CCN5CCOCC5)CSc5ccccc5)c(S(=O)(=O)C(F)(F)F)c4)cc3)CC2)C1 [ABT-263, reference compound] | 100 to 200 |  |  | 
2 | CC1(C)CCC(CN2CCN(c3ccc(C(=O)NS(=O)(=O)c4ccc(N[C@H](CCN5CCN(C(=O)NCCOCCOCCNc6cccc7c6C(=O)N(C6CCC(=O)NC6=O)C7=O)CC5)CSc5ccccc5)c(S(=O)(=O)C(F)(F)F)c4)cc3)CC2)=C(C23CC(C(F)F)(C2)C3)C1 (stereo partly drawn) [Example 1, 4-((R)-3-((4-(N-(4-(4-((2-(3-(difluoromethyl)bicyclo[1.1.1]pentan-1-yl)-4,4-dimethylcyclohex-1-en-1-yl)methyl)piperazin-1-yl)benzoyl)sulfamoyl)-2-((trifluoromethyl)sulfonyl)phenyl)amino)-4-(phenylthio)butyl)-N-(2-(2-(2-((2-(2,6-dioxopiperidin-3-yl)-1,3-dioxoisoindolin-4-yl)amino)ethoxy)ethoxy)ethyl)piperazine-1-carboxamide] | ≥ 200 |  |  | 
3 | CC1(C)CCC(CN2CCN(c3ccc(C(=O)NS(=O)(=O)c4ccc(N[C@H](CCN5CCN(CCOCCOCCNc6cccc7c6C(=O)N(C6CCC(=O)NC6=O)C7=O)CC5)CSc5ccccc5)c(S(=O)(=O)C(F)(F)F)c4)cc3)CC2)=C(C23CC(C(F)F)(C2)C3)C1 (stereo partly shown) [Example 3] |  |  | can induce Bcl-xL degradation in MOLM-13 cells in a dose dependent manner | can be inhibited by proteasome inhibitor MG132
4 | CC1(C)CCC(CN2CCN(c3ccc(C(=O)NS(=O)(=O)c4ccc(N[C@H](CCN5CCC(C(=O)NCCOCCOCCNc6cccc7c6C(=O)N(C6CCC(=O)NC6=O)C7=O)CC5)CSc5ccccc5)c(S(=O)(=O)C(F)(F)F)c4)cc3)CC2)=C(C23CC(C(F)F)(C2)C3)C1 (stereo partly drawn) [Example 5, 1-((R)-3-((4-(N-(4-(4-((2-(3-(difluoromethyl)bicyclo[1.1.1]pentan-1-yl)-4,4-dimethylcyclohex-1-en-1-yl)methyl)piperazin-1-yl)benzoyl)sulfamoyl)-2-((trifluoromethyl)sulfonyl)phenyl)amino)-4-(phenylthio)butyl)-N-(2-(2-(2-((2-(2,6-dioxopiperidin-3-yl)-1,3-dioxoisoindolin-4-yl)amino)ethoxy)ethoxy)ethyl)piperidine-4-carboxamide] | 100 to 200 | induce Bcl-xL degradation |  | 
5 | CC1(C)CCC(CN2CCN(c3ccc(C(=O)NS(=O)(=O)c4ccc(N[C@H](CCN5CCN(CCOCCNc6ccc7c(c6)C(=O)N(C6CCC(=O)NC6=O)C7=O)CC5)CSc5ccccc5)c(S(=O)(=O)C(F)(F)F)c4)cc3)CC2)=C(C23CC(C(F)F)(C2)C3)C1 (stereo partly drawn) [Example 6, 4-(4-((2-(3-(Difluoromethyl)bicyclo[1.1.1]pentan-1-yl)-4,4-dimethylcyclohex-1-en-1-yl)methyl)piperazin-1-yl)-N-((4-(((2R)-4-(4-(2-(2-((2-(2,6-dioxopiperidin-3-yl)-1,3-dioxoisoindolin-5-yl)amino)ethoxy)ethyl)piperazin-1-yl)-1-(phenylthio)butan-2-yl)amino)-3-((trifluoromethyl)sulfonyl)phenyl)sulfonyl)benzamide] | ≤ 100 | induce Bcl-xL degradation |  | 
6 | CC1(C)CCC(CN2CCN(c3ccc(C(=O)NS(=O)(=O)c4ccc(N[C@H](CCN5CCN(CCOCCOCCOCCNc6cccc7c6C(=O)N(C6CCC(=O)NC6=O)C7=O)CC5)CSc5ccccc5)c(S(=O)(=O)C(F)(F)F)c4)cc3)CC2)=C(C23CC(C)(C2)C3)C1 (stereo partly drawn) [Example 10, 4-(4-((4,4-dimethyl-2-(3-methylbicyclo[1.1.1]pentan-1-yl)cyclohex-1-en-1-yl)methyl)piperazin-1-yl)-N-((4-(((2R)-4-(4-(2-(2-(2-(2-((2-(2,6-dioxopiperidin-3-yl)-1,3-dioxoisoindolin-4-yl)amino)ethoxy)ethoxy)ethoxy)ethyl)piperazin-1-yl)-1-(phenylthio)butan-2-yl)amino)-3-((trifluoromethyl)sulfonyl)phenyl)sulfonyl)benzamide] | ≤ 100 | induce Bcl-xL degradation |  | 

Now from value to molecule, other results behind:

Row | IC50 (MOLT-4 cells) [nM] | Bcl-xL degradation in MOLT-4 cells (Bcl-xL [1]) | SMILES | Bcl-xL degradation in MOLM-13 cells (Bcl-xL [2]) | Bcl-xL degradation with proteasome inhibitor MG132 in MOLM-13 cells (Bcl-xL [2])
7 | ≤ 100 | induce Bcl-xL degradation | CC1(C)CCC(CN2CCN(c3ccc(C(=O)NS(=O)(=O)c4ccc(N[C@H](CCN5CCN(CCOCCNc6cccc7c6C(=O)N(C6CCC(=O)NC6=O)C7=O)CC5)CSc5ccccc5)c(S(=O)(=O)C(F)(F)F)c4)cc3)CC2)=C(C23CC(C(F)F)(C2)C3)C1 (stereo partly drawn) [Example 2, 4-(4-((2-(3-(Difluoromethyl)bicyclo[1.1.1]pentan-1-yl)-4,4-dimethylcyclohex-1-en-1-yl)methyl)piperazin-1-yl)-N-((4-(((2R)-4-(4-(2-(2-((2-(2,6-dioxopiperidin-3-yl)-1,3-dioxoisoindolin-4-yl)amino)ethoxy)ethyl)piperazin-1-yl)-1-(phenylthio)butan-2-yl)amino)-3-((trifluoromethyl)sulfonyl)phenyl)sulfonyl)benzamide] | can induce Bcl-xL degradation in MOLM-13 cells in a dose dependent manner | can be inhibited by proteasome inhibitor MG132
8 | ≤ 100 | induce Bcl-xL degradation | CC1(C)CCC(CN2CCN(c3ccc(C(=O)NS(=O)(=O)c4ccc(N[C@H](CCN5CCN(CCOCCOCCOCCNc6cccc7c6C(=O)N(C6CCC(=O)NC6=O)C7=O)CC5)CSc5ccccc5)c(S(=O)(=O)C(F)(F)F)c4)cc3)CC2)=C(C23CC(C(F)F)(C2)C3)C1 (stereo partly drawn) [Example 4, 4-(4-((2-(3-(difluoromethyl)bicyclo[1.1.1]pentan-1-yl)-4,4-dimethylcyclohex-1-en-1-yl)methyl)piperazin-1-yl)-N-((4-(((2R)-4-(4-(2-(2-(2-(2-((2-(2,6-dioxopiperidin-3-yl)-1,3-dioxoisoindolin-4-yl)amino)ethoxy)ethoxy)ethoxy)ethyl)piperazin-1-yl)-1-(phenylthio)butan-2-yl)amino)-3-((trifluoromethyl)sulfonyl)phenyl)sulfonyl)benzamide] |  | can be inhibited by proteasome inhibitor MG132
9 | ≤ 100 | induce Bcl-xL degradation | CC1(C)CCC(CN2CCN(c3ccc(C(=O)NS(=O)(=O)c4ccc(N[C@H](CCN5CCN(CCOCCNc6cccc7c6C(=O)N(C6CCC(=O)NC6=O)C7=O)CC5)CSc5ccccc5)c(S(=O)(=O)C(F)(F)F)c4)cc3)CC2)=C(C23CC(C)(C2)C3)C1 (stereo partly drawn) [Example 9, 4-(4-((4,4-Dimethyl-2-(3-methylbicyclo[1.1.1]pentan-1-yl)cyclohex-1-en-1-yl)methyl)piperazin-1-yl)-N-((4-(((2R)-4-(4-(2-(2-((2-(2,6-dioxopiperidin-3-yl)-1,3-dioxoisoindolin-4-yl)amino)ethoxy)ethyl)piperazin-1-yl)-1-(phenylthio)butan-2-yl)amino)-3-((trifluoromethyl)sulfonyl)phenyl)sulfonyl)benzamide] |  | 
